For one data set, the target named is T1, GST-tagged MDM2 (Homo sapiens, UniProt Q00987).
T1 construct: purchased Cisbio Co. Ltd
Nature of the data set: HTRF enzyme inhibition assay, MDM2. Format: biochemical. The following applies: compound at 1 μM. How it is done: The enzymatic assay of test compounds is using the HTRF-based method provided by Cisbio Co. Ltd. In brief, the target compounds to be tested were prepared into samples with a concentration of 1 μM, which was added to GST-tagged MDM2 and HDAC1 proteins, respectively, then biotinylated substrate p53 peptide and HTRF detection reagents were added. The data obtained were processed by the ratio method, and the inhibition rates of MDM2 and HDAC1 were calculated. The detailed experimental procedures are according to the manufacturer’s protocols.
For orientation: TR-FRET usually uses a lanthanide donor and a delayed reading to cut background.

The target of the next data set is HDAC1 (Homo sapiens, UniProt Q13547). Nature of the data set: HTRF enzyme inhibition assay, HDAC1. The following applies: for inhibition at 1 µM: read-out: % enzyme inhibition HDAC; for % enzyme inhibition HDAC: compound at 1 μM, HTRF, method names HDAC1 protein.
Chain of HDAC1 (Q13547 whole entry): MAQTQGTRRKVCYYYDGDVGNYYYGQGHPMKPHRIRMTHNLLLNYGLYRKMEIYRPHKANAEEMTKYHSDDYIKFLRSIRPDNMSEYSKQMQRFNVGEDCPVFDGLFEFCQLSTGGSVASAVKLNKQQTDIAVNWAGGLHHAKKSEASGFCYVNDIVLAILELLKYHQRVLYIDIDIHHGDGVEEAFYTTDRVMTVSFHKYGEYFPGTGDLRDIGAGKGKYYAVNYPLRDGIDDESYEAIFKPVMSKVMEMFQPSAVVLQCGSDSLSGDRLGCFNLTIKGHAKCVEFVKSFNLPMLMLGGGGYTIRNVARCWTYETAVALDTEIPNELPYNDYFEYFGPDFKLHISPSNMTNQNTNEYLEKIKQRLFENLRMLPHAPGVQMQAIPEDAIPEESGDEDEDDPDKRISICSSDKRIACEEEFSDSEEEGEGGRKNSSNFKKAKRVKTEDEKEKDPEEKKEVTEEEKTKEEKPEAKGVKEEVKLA

T1 sequence (Q00987 whole entry): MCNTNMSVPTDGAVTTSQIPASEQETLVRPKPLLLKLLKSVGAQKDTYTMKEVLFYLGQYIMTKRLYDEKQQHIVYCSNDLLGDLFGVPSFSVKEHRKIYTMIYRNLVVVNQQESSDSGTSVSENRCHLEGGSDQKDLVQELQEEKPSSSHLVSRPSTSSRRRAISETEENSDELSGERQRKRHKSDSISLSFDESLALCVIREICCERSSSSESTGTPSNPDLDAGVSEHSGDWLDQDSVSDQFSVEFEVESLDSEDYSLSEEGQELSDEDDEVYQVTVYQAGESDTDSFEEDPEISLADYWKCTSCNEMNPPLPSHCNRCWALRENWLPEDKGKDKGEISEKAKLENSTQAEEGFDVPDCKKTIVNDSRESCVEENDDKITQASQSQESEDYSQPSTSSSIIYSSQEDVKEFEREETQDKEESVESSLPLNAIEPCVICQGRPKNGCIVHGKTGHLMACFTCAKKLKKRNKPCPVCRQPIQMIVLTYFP

In general, inhibition refers to the share of the control response that was lost under treatment. Usually melting point stands for the temperature, or range, at which the solid turns liquid. Turning to `CN(C)c1ccc(C(=O)[C@H]2[C@H](c3ccc(NC(=O)CCCCCCC(=O)NO)cc3)[C@H]3CSCN3[C@]23C(=O)Nc2ccccc23)cc1` [7m, N^1-(4-((3R,6'S,7'R,7a'S)-6'-(4-(dimethylamino)benzoyl)-2-oxo-1',6',7',7a'-tetrahydro-3'H-spiro[indoline-3,5'-pyrrolo[1,2-c]thiazol]-7'-yl)phenyl)-N^8-hydroxyoctanediamide], the melting point lay in the range of 148.7 to 150 °C. Also, on GST-tagged MDM2, the inhibition at 1 µM turned out to be 40%. Further, at HDAC1, the inhibition at 1 µM was 68%.

`Nc1ccccc1NC(=O)CCCCCCC(=O)Nc1ccc([C@@H]2[C@H]3CSCN3[C@]3(C(=O)Nc4ccccc43)[C@H]2C(=O)c2ccccc2)cc1` [9b, N^1-(2-aminophenyl)-N^8-(4-((3R,6'S,7'R,7a'S)-6'-benzoyl-2-oxo-1',6',7',7a'-tetrahydro-3'H-spiro[indoline-3,5'-pyrrolo[1,2-c]thiazol]-7'-yl)phenyl)octanediamide] registered a melting point of 131.7 to 132.9 °C. Also, on GST-tagged MDM2, the inhibition at 1 µM was determined as 45%. Further, the inhibition at 1 µM at HDAC1 was determined as 45%.

On to `Cc1cccc2c1NC(=O)[C@@]21[C@@H](C(=O)c2ccccc2)[C@H](c2ccc(NC(=O)CCCCCCC(=O)NO)cc2)[C@H]2CSCN21` [7h, N^1-(4-((3R,6'S,7'R,7a'S)-6'-benzoyl-7-methyl-2-oxo-1',6',7',7a'-tetrahydro-3'H-spiro[indoline-3,5'-pyrrolo[1,2-c]thiazol]-7'-yl)phenyl)-N^8-hydroxyoctanediamide], for which the melting point was 142.7 to 143.9 °C. The compound also came in with an inhibition at 1 µM against GST-tagged MDM2 of 23%. Further, the inhibition at 1 µM at HDAC1 amounted to 71%.

As for “N^1-(4-((3R,6'S,7'R,7a'S)-6-chloro-2-oxo-6'-(thiophene-2-carbonyl)-1',6',7',7a'-tetrahydro-3'H-spiro[indoline-3,5'-pyrrolo[1,2-c]thiazol]-7'-yl)phenyl)-N^6-hydroxyadipamide [15c]”, on GST-tagged MDM2, the “% enzyme inhibition MDM2” value worked out at 49%. Also, on HDAC1, the “% enzyme inhibition HDAC” value was 70%.

The compound `Nc1ccccc1NC(=O)CCC(=O)Nc1ccc([C@@H]2[C@H]3CSCN3[C@]3(C(=O)Nc4ccccc43)[C@H]2C(=O)c2ccccc2)cc1` [9a, N^1-(2-aminophenyl)-N^4-(4-((3R,6'S,7'R,7a'S)-6'-benzoyl-2-oxo-1',6',7',7a'-tetrahydro-3'H-spiro[indoline-3,5'-pyrrolo[1,2-c]thiazol]-7'-yl)phenyl)succinamide] yielded a melting point of 149.1 to 150.2 °C. The compound further showed an inhibition at 1 µM at GST-tagged MDM2 of 50%. Moreover, on HDAC1, the inhibition at 1 µM came out at 37%.

Regarding “N^1-(4-((3R,6'S,7'R,7a'S)-6-chloro-6'-(4-(dimethylamino)benzoyl)-2-oxo-1',6',7',7a'-tetrahydro-3'H-spiro[indoline-3,5'-pyrrolo[1,2-c]thiazol]-7'-yl)phenyl)-N^6-hydroxyadipamide [7y]”, the “% enzyme inhibition MDM2” value on GST-tagged MDM2 was 54%. Further, the “% enzyme inhibition HDAC” value at HDAC1 is 71%.

On to “N^1-(4-((3R,6'S,7'R,7a'S)-6-chloro-6'-(furan-2-carbonyl)-2-oxo-1',6',7',7a'-tetrahydro-3'H-spiro[indoline-3,5'-pyrrolo[1,2-c]thiazol]-7'-yl)phenyl)-N^6-hydroxyadipamide [15b]”, for which the “% enzyme inhibition MDM2” value at GST-tagged MDM2 came out at 48%. Moreover, at HDAC1, the “% enzyme inhibition HDAC” value was 70%.

In the case of `COc1ccc2c(c1)NC(=O)[C@@]21[C@@H](C(=O)c2ccccc2)[C@H](c2ccc(NC(=O)CCCCCCC(=O)NO)cc2)[C@H]2CSCN21` [7k, N^1-(4-((3R,6'S,7'R,7a'S)-6'-benzoyl-6-methoxy-2-oxo-1',6',7',7a'-tetrahydro-3'H-spiro[indoline-3,5'-pyrrolo[1,2-c]thiazol]-7'-yl)phenyl)-N^8-hydroxyoctanediamide], the inhibition at 1 µM was 54% against GST-tagged MDM2 and 70% on HDAC1.

Values taken from article PMC9386376, “Discovery of spirooxindole-derived small-molecule compounds as novel HDAC/MDM2 dual inhibitors and investigation of their anticancer activity” (Frontiers in Oncology, 2022).
